# Measured values from patent US20090264427A1, “3-Cyanoquinolines, Methods for Preparation and Use as Insulin-like Growth Factor Inhibitors” (Wyeth, priority 2008, published 2009).
# Target: T1, IGF1-receptor kinase (IGFR) (Homo sapiens, UniProt P08069)
# T1 construct: GST (with thrombin cleavage site) (N); made in house; host or cells: ExpresSF insect cells
# Assay: 96-well FRET (Lance) tyrosine kinase assay, IGFR
# Assay type: biochemical
# Conditions: ATP 100 micromolar final, 1 hour reaction, enzyme form (GST-, Bis- or Tris-IGFR) not given
# T1 sequence (P08069 31-1367): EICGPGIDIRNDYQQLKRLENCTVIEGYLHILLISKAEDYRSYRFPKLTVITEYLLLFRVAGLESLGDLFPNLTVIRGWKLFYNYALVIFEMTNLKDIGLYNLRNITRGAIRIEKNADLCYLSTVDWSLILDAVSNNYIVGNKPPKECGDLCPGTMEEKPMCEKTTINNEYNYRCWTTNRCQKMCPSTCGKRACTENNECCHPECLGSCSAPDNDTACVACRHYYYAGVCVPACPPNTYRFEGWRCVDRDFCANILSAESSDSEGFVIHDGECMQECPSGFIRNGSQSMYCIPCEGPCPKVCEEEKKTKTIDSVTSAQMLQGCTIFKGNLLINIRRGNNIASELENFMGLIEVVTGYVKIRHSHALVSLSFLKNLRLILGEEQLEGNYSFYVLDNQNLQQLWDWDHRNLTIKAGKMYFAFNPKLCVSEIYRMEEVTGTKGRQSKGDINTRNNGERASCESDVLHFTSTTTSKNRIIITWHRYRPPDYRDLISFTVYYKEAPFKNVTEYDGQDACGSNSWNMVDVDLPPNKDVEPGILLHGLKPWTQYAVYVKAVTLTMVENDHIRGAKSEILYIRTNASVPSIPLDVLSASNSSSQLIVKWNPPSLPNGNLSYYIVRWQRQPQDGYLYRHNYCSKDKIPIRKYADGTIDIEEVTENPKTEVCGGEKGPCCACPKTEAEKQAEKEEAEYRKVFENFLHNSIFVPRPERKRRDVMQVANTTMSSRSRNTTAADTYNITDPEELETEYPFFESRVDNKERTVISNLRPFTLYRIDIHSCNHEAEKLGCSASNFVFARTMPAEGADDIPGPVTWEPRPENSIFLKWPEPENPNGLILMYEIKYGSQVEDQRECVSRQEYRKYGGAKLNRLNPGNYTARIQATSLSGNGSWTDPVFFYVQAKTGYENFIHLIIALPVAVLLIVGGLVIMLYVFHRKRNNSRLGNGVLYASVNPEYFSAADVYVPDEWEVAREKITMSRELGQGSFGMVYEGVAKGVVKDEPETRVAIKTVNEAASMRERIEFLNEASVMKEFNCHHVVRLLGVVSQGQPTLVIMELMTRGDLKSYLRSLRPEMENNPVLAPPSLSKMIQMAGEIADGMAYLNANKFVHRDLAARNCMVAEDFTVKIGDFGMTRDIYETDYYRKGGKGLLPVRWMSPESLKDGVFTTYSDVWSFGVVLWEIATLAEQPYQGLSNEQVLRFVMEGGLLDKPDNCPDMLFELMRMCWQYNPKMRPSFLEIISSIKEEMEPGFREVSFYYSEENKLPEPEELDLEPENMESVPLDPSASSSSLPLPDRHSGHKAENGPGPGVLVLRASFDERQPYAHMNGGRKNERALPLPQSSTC
row,IC50,Structure (SMILES)
1,17200 nM,"CCn1c(Sc2ccc(Nc3c(C#N)cnc4cc(NCCCc5ccccc5)c(OC)cc34)cc2Cl)nc(C)c1C [Example 7, 4-({3-Chloro-4-[(1-ethyl-4,5-dimethyl-1H-imidazol-2-yl)thio]phenyl}amino)-6-methoxy-7-[(3-phenylpropyl)amino]quinoline-3-carbonitrile]"
2,20 nM,"CCn1c(Sc2ccc(Nc3c(C#N)cnc4cc(OCCCN5CCC(O)C5)c(OC)cc34)cc2Cl)nc(C)c1C (stereo not drawn) [Example 20, 4-({3-chloro-4-[(1-ethyl-4,5-dimethyl-1H-imidazol-2-yl)thio]phenyl}amino)-7-[3-(3-hydroxypyrrolidin-1-yl)propoxy]-6-methoxyquinoline-3-carbonitrile]"
3,30 nM,"COc1cc2c(Nc3ccc(Sc4nc(C)c(C)n4C)c(Br)c3)c(C#N)cnc2cc1NCCCN(C)C [Example 5, 4-({3-bromo-4-[(1,4,5-trimethyl-1H-imidazol-2-yl)thio]phenyl}amino)-7-{[3-(dimethylamino)-propyl]amino}-6-methoxy-quinoline-3-carbonitrile]"
4,35 nM,"CCn1c(Sc2ccc(Nc3c(C#N)cnc4cc(OCCCNS(C)(=O)=O)c(OC)cc34)cc2Cl)nc(C)c1C [Example 16, N-(3-{[4-({3-chloro-4-[(1-ethyl-4,5-dimethyl-1H-imidazol-2-yl)thio]phenyl]amino)-3-cyano-6-methoxyquinolin-7-yl]oxy}propyl)-methanesulfonamide]"
5,41 nM,"CCOC(=O)N1CCN(CCCOc2cc3ncc(C#N)c(Nc4ccc(Sc5nc(C)c(C)n5CC)c(Cl)c4)c3cc2OC)CC1 [Example 13, ethyl 4-(3-{[4-({3-chloro-4-[(1-ethyl-4,5-dimethyl-1H-imidazol-2-yl)thio]phenyl}amino)-3-cyano-6-methoxyquinolin-7-yl]oxy}propyl)-piperazine-1-carboxylate]"
6,13 nM,"CCn1c(Sc2ccc(Nc3c(C#N)cnc4cc(NCCCN5CCOCC5)c(OC)cc34)cc2Cl)nc(C)c1C [Example 8, 4-({3-chloro-4-[(1-ethyl-4,5-dimethyl-1H-imidazol-2-yl)thio]phenyl}-amino)-6-methoxy-7-[(3-morpholin-4-ylpropyl)amino]-quinoline-3-carbonitrile]"
7,27 nM,"CCC1CCCCN1CCCOc1cc2ncc(C#N)c(Nc3ccc(Sc4nc(C)c(C)n4CC)c(Cl)c3)c2cc1OC (stereo not drawn) [Example 14, 4-({3-chloro-4-[(1-ethyl-4,5-dimethyl-1H-imidazol-2-yl)thio]phenyl}amino)-7-[3-(2-ethylpiperidin-1-yl)propoxy]-6-methoxy-quinoline-3-carbonitrile]"
8,22 nM,"CCn1c(Sc2ccc(Nc3c(C#N)cnc4cc(OCCCN5CCOCC5)c(OC)cc34)cc2Cl)nc(C)c1C [Example 24, 4-({3-chloro-4-[(1-ethyl-4,5-dimethyl-1H-imidazol-2-yl)thio]phenyl}amino)-6-methoxy-7-(3-morpholin-4-ylpropoxy)qquinoline-3-carbonitrile]"
9,5 nM,"CCN1CCN(CCCOc2cc3ncc(C#N)c(Nc4ccc(Sc5nc(C)c(C)n5CC)c(Cl)c4)c3cc2OC)CC1 [Example 17, 4-({3-Chloro-4-[(1-ethyl-4,5-dimethyl-1H-imidazol-2-yl)sulfanyl]phenyl}amino)-7-[3-(4-ethyl-1-piperazinyl)propoxy]-6-methoxy-3-quinolinecarbonitrile]"
10,17 nM,"CCOC(=O)CN1CCN(CCCOc2cc3ncc(C#N)c(Nc4ccc(Sc5nc(C)c(C)n5CC)c(Cl)c4)c3cc2OC)CC1 [Example 22, ethyl [4-(3-{[4-({3-chloro-4-[(1-ethyl-4,5-dimethyl-1H-imidazol-2-yl)thio]phenyl}amino)-3-cyano-6-methoxyquinolin-7-yl]oxy}propyl)piperazin-1-yl]acetate]"
11,2 nM,"CCn1c(Sc2ccc(Nc3c(C#N)cnc4cc(NCCCN5CCN(C)CC5)c(OC)cc34)cc2Cl)nc(C)c1C [Example 28, 4-[3-Chloro-4-(1-ethyl-4,5-dimethyl-1H-imidazol-2-ylsulfanyl)-phenylamino]-6-methoxy-7-[3-(4-methyl-piperazin-1-yl)-propylamino]-quinoline-3-carbonitrile]"
12,21 nM,"CCn1c(Sc2ccc(Nc3c(C#N)cnc4cc(NCCCN(CCO)CCO)c(OC)cc34)cc2Cl)nc(C)c1C [Example 9, 7-({3-[bis(2-hydroxyethyl)amino]propyl}amino)-4-({3-chloro-4-[(1-ethyl-4,5-dimethyl-1H-imidazol-2-yl)thio]phenyl}amino)-6-methoxyquinoline-3-carbonitrile]"
13,47 nM,"CCn1c(Sc2ccc(Nc3c(C#N)cnc4cc(OCCCN5CCC(O)CC5)c(OC)cc34)cc2Cl)nc(C)c1C [Example 26, 4-({3-chloro-4-[(1-ethyl-4,5-dimethyl-1H-imidazol-2-yl)thio]phenyl}amino)-7-[3-(4-hydroxypiperidin-1-yl)propoxy]-6-methoxyquinoline-3-carbonitrile]"
14,3880 nM,"CCn1c(Sc2ccc(Nc3c(C#N)cnc4cc(OCCCNS(=O)(=O)c5ccccc5)c(OC)cc34)cc2Cl)nc(C)c1C [Example 10, N-(3-{4-[3-chloro-4-(1-ethyl-4,5-dimethyl-1H-imidazol-2-ylsulfanyl)-phenylamino]-3-cyano-6-methoxy-quinolin-7-yloxy}-propyl)-benzenesulfonamide]"
15,142 nM,"CCOC(=O)C1CCN(CCCOc2cc3ncc(C#N)c(Nc4ccc(Sc5nc(C)c(C)n5CC)c(Cl)c4)c3cc2OC)CC1 [Example 15, ethyl 1-(3-{[4-({3-chloro-4-[(1-ethyl-4,5-dimethyl-1H-imidazol-2-yl)thio]phenyl}amino)-3-cyano-6-methoxyquinolin-7-yl]oxy}propyl)-piperidine-4-carboxylate]"
16,11 nM,"CCn1c(Sc2ccc(Nc3c(C#N)cnc4cc(OCCCN5CCN(CCO)CC5)c(OC)cc34)cc2Cl)nc(C)c1C [Example 18, 4-({3-chloro-4-[(1-ethyl-4,5-dimethyl-1H-imidazol-2-yl)thio]-phenyl}amino)-7-{3-[4-(2-hydroxyethyl)piperazin-1-yl]propoxy}-6-methoxy-quinoline-3-carbonitrile]"
17,24 nM,"CCn1c(Sc2ccc(Nc3c(C#N)cnc4cc(OCCCN(CCO)C(C)(C)C)c(OC)cc34)cc2Cl)nc(C)c1C [Example 11, 7-{3-[tert-butyl(2-hydroxy-ethyl)amino]propoxy}-4-({3-chloro-4-[(1-ethyl-4,5-dimethyl-1H-imidazol-2-yl)thio]phenyl}amino)-6-methoxyquinoline-3-carbonitrile]"
18,291 nM,"COc1cc2c(Nc3ccc(Sc4nc5cc(C)ccc5n4C)c(Cl)c3)c(C#N)cnc2cc1NCCCN(C)C [Example 3, 4-({3-chloro-4-[(1,5-dimethyl-1H-benzimidazol-2-yl)thio]phenyl}amino)-7-{[3-(dimethylamino)propyl]amino}-6-methoxyquinoline-3-carbonitrile]"
19,16 nM,"CCn1c(Sc2ccc(Nc3c(C#N)cnc4cc(OCCCN5CCN(C(C)=O)CC5)c(OC)cc34)cc2Cl)nc(C)c1C [Example 27, 7-[3-(4-acetylpiperazin-1-yl)propoxy]-4-({3-chloro-4-[(1-ethyl-4,5-dimethyl-1H imidazol-2-yl)thio]phenyl}amino)-6-methoxyquinoline-3-carbonitrile]"
20,394 nM,"COc1cc2c(Nc3ccc(Sc4nc(C)c(C)n4C)cc3)c(C#N)cnc2cc1NCCCN(C)C [Example 6, 7-{[3-(dimethyl-amino)propyl]-amino}-6-methoxy-4-({4-[(1,4,5-trimethyl-1H imidazol-2-yl)thio]phenyl}amino)-quinoline-3-carbonitrile]"

# System: not given
# Assay: not given
# Conditions: not given
row,melting point,Structure (SMILES)
1,229 to 230 °C,"CCN1CCN(CCCOc2cc3ncc(C#N)c(Nc4ccc(Sc5nc(C)c(C)n5CC)c(Cl)c4)c3cc2OC)CC1 [Example 17, 4-({3-Chloro-4-[(1-ethyl-4,5-dimethyl-1H-imidazol-2-yl)sulfanyl]phenyl}amino)-7-[3-(4-ethyl-1-piperazinyl)propoxy]-6-methoxy-3-quinolinecarbonitrile]"
